Source: US12116356B2, “N-heterocyclic five-membered ring-containing capsid protein assembly inhibitor, pharmaceutical composition thereof, and use thereof” (CHIA TAI TIANQING PHARMACEUTICAL GROUP CO., LTD., priority 2018, dated 2024)
pEC50: −log10 of the molar value. Read-outs that look alike come from different tables or passages of the source.

Experiments:
Assay type in all cases: cell-based
HBV DNA in HepAD38 cells = test: In vitro cell HBV DNA inhibitory activity (anti-HBV activity) in HepAD38 cells; conditions: Hepatitis B virus
Method: (§1) A bottle of HepG2.2.15 or HepAD38 cells in good exponential growth state was taken, washed once by adding 5 mL PBS, and then thereto was added 3 mL trypsin. After digesting at room temperature for 5 min, 2 mL trypsin was discarded, and then the sample was placed in a cell culture incubator and digested for 10 min. The cells were taken out from time to time and observed under a microscope (whether the cells were individually round and there was no adhesion between the cells). 10 mL complete medium was added to terminate the digestion. After pipetting into a single cell suspension, 10 μL of the cell suspension was taken out for cell counting with a cell counter, and then diluted with a complete medium and adjusted to a cell density of 1*10^5 cells/mL. Then the cell suspension was seeded at 1 mL/well in a 24-well plate with a multi-channel pipette (the 24-well plate was coated with 50 μg/mL Collagen I solution in advance), and cultured in a constant temperature CO2 incubator for 48 h.
(§2) Different compounds dissolved in DMSO were subjected to two-fold gradient dilution (10 concentrations in total) with complete medium. The compound was added, and fresh medium containing the compound was used to replace the spent medium every 72 hours. The cells were treated with the compound for 6 days. After the supernatant was siphoned off, 300 μL lysate (10 mM Tris-HCl, 1 mM EDTA, and 1% NP-40) was added to each well. After lysing at room temperature for 10 min, DNA was extracted, and HBV DNA in the intracellular viral capsid was measured by real-time fluorescence quantitative PCR. The inhibition rate was calculated based on the Ct value, and the EC50 value was calculated by the four-parameter method.

[1] = In vitro cytotoxicity (CCK-8) in HepAD38 cells; conditions: human
Method: (§3) A bottle of HepG2.2.15 or HepAD38 cells in good exponential growth state was taken, washed once by adding 5 mL PBS, and then thereto was added 3 mL trypsin. The sample was digested in a cell culture incubator, and taken out from time to time and observed under a microscope. When the cells just fell off, 1 mL trypsin was discarded. The residual liquid was placed in a cell culture incubator at 37° C. and digested for 8-15 min. The cells were taken out and observed under a microscope (whether the cells were individually round and there was no adhesion between the cells). 5 mL MEM medium was added for cell resuspension. The cells were then subjected to cell counting with a cell counter, diluted with a complete medium, and adjusted to a cell density of 2*10^5 cells/mL. Then the cells were seeded at 100 μL/well in a 96-well plate with a multi-channel pipette (the 96-well plate was coated with 50 μg/mL Collagen I solution in advance), and cultured in a constant temperature CO2 incubator for 24 h. The cells were treated by drug administration, and fresh medium containing the compound was used to replace the spent medium every 3 days. To control wells was added a drug-free medium containing 0.5% DMSO, and a control well containing a common medium was set up. 6 days after the administration, CCK-8 was added at 10 μL/well. After 1 to 2 hours, the absorbance was detected with microplate reader at 450 nm, and the inhibition rate and the CC50 were calculated.

[2] = tested on: HBV DNA in HepG2.2.15 cells; test: In vitro cell HBV DNA inhibitory activity (anti-HBV activity) in HepG2.2.15 cells; conditions: Hepatitis B virus
Method: as §1, §2

[3] = In vitro cytotoxicity (CCK-8) in HepG2.2.15 cells; conditions: human
Method: as §3

[4] = 144 h, anti-HBV activity in HepAD38 cells, 6 days treatment, intracellular capsid HBV DNA by qPCR, read-out: EC50
[5] = 144 h, anti-HBV activity in HepG2.2.15 cells, 6 days treatment, intracellular capsid HBV DNA by qPCR, read-out: EC50

Row | Structure (SMILES) | pEC50 (HBV DNA in HepAD38 cells; [4]) | pEC50 [2, 5] | further results
1 | Cc1c(C(=O)Nc2ccc(F)c(C#N)c2)c(C)n(C)c1C(=O)C(=O)N[C@H]1C[C@H](O)C1 [Example 3, N-(3-cyano-4-fluorophenyl)-5-(2-((trans-3-hydroxycyclobutyl)amino)-2-oxoacetyl)-1,2,4-trimethyl-1H-pyrrole-3-carboxamide] | 7.00 to 7.30 |  | 
2 | Cc1c(C(=O)Nc2ccc(F)c(C#N)c2)c(C)n(C)c1C(=O)C(=O)N[C@H]1C[C@@H](O)C1 [Example 4, N-(3-cyano-4-fluorophenyl)-5-(2-((cis-3-hydroxycyclobutyl)amino)-2-oxoacetyl)-1,2,4-trimethyl-1H-pyrrole-3-carboxamide] | 7.30 to 8.00 |  | 
3 | Cc1c(C(=O)Nc2ccc(F)c(C#N)c2)c(C)n(C)c1C(=O)C(=O)NC1COC1 [Example 5, N-(3-cyano-4-fluorophenyl)-1,2,4-trimethyl-5-(2-(oxetan-3-ylamino)-2-oxoacetyl)-1H-pyrrole-3-carboxamide] | 7.30 to 8.00 |  | 
4 | Cc1c(C(=O)Nc2ccc(F)c(C#N)c2)c(C)n(C)c1C(=O)C(=O)N[C@H]1C[C@@H](CO)C1 [Example 10, N-(3-cyano-4-fluorophenyl)-5-(2-((cis-3-(hydroxymethyl)cyclobutyl)amino)-2-oxoacetyl)-1,2,4-trimethyl-1H-pyrrole-3-carboxamide] | 7.30 to 8.00 |  | 
5 | Cc1c(C(=O)Nc2ccc(F)c(C#N)c2)cn(C)c1C(=O)C(=O)NC(C)(C)C [Example 14, 5-(2-(tert-butylamino)-2-oxoacetyl)-N-(3-cyano-4-fluorophenyl)-1,4-dimethyl-1H-pyrrole-3-carboxamide] | 7.30 to 8.00 |  | 
6 | Cc1c(C(=O)Nc2ccc(F)c(C#N)c2)cc(C(=O)C(=O)NC(C)(C)C)n1C [Example 16, 5-(2-(tert-butylamino)-2-oxoacetyl)-N-(3-cyano-4-fluorophenyl)-1,2-dimethyl-1H-pyrrole-3-carboxamide] |  | > 8.00 | CC50 at 6 days [1]: > 100000 nM
7 | Cn1c(Br)c(C(=O)Nc2ccc(F)c(C#N)c2)c(Br)c1C(=O)C(=O)NC(C)(C)C [Example 20, 2,4-dibromo-5-(2-(tert-butylamino)-2-oxoacetyl)-N-(3-cyano-4-fluorophenyl)-1-methyl-1H-pyrrole-3-carboxamide] | 7.30 to 8.00 | 7.00 to 7.30 | 
8 | Cc1c(C(=O)Nc2ccc(F)c(C#N)c2)c(C)n(C)c1C(=O)C(=O)N[C@@H]1CCOC1 [Example 21] | 7.30 to 8.00 | 7.00 to 7.30 | CC50 at 6 days [1]: > 100000 nM; CC50 at 6 days [3]: > 100000 nM
9 | Cc1c(C(=O)Nc2ccc(F)c(C#N)c2)c(C)n(C)c1C(=O)C(=O)N[C@H]1CCOC1 [Example 22] | 7.30 to 8.00 | 7.30 to 8.00 | CC50 at 6 days [1]: > 100000 nM; CC50 at 6 days [3]: > 100000 nM
10 | Cc1c(C(=O)Nc2ccc(F)c(C#N)c2)c(C)n(C)c1C(=O)C(=O)NC1(C)CCOC1 (stereo not drawn) [Example 23] | > 8.00 | > 8.00 | CC50 at 6 days [1]: > 100000 nM; CC50 at 6 days [3]: > 100000 nM
11 | Cc1c(C(=O)Nc2ccc(F)c(C#N)c2)c(C)n(C)c1C(=O)C(=O)NC1(C)CCOCC1 [Example 24, N-(3-cyano-4-fluorophenyl)-1,2,4-trimethyl-5-(2-((4-methyltetrahydro-2H-pyran-4-yl)amino)-2-oxoacetyl)-1H-pyrrole-3-carboxamide] | > 8.00 | > 8.00 | CC50 at 6 days [1]: > 100000 nM; CC50 at 6 days [3]: > 100000 nM
12 | Cc1c(C(=O)Nc2ccc(F)c(C#N)c2)c(C)n(C)c1C(=O)C(=O)NC1(CO)COC1 [Example 26] | 7.00 to 7.30 | 7.00 to 7.30 | CC50 at 6 days [1]: > 100000 nM; CC50 at 6 days [3]: > 100000 nM
13 | CNC(=O)C1(NC(=O)C(=O)c2c(C)c(C(=O)Nc3ccc(F)c(C#N)c3)c(C)n2C)CC(F)(F)C1 [Example 28] |  |  | pEC50 (HBV DNA in HepAD38 cells; HePAD38, 144 h): 7.30 to 8.00
14 | Cc1c(C(=O)Nc2ccc(F)c(C#N)c2)c(Cl)n(C)c1C(=O)C(=O)NC1(C)CCOCC1 [Example 31] | > 8.00 |  | 
15 | Cc1c(C(=O)Nc2ccc(F)c(C#N)c2)c(Cl)n(C)c1C(=O)C(=O)NC1(C(F)(F)F)COC1 [Example 32] | > 8.00 |  | 
16 | Cc1c(C(=O)Nc2ccc(F)c(C#N)c2)c(Cl)n(C)c1C(=O)C(=O)NC1(C)COC1 [Example 34, 2-chloro-N-(3-cyano-4-fluorophenyl)-1,4-dimethyl-5-(2-((3-methyloxetan-3-yl)amino)-2-oxoacetyl)-1H-pyrrole-3-carboxamide] | 7.30 to 8.00 |  | 
17 | Cc1c(C(=O)Nc2ccc(F)c(Cl)c2)c(Cl)n(C)c1C(=O)C(=O)N[C@@H](C)C(F)(F)F [Example 35, (S)-2-chloro-N-(3-chloro-4-fluorophenyl)-1,4-dimethyl-5-(2-oxo-2-((1,1,1-trifluoroprop-2-yl)amino)acetyl)-1H-pyrrole-3-carboxamide] | > 8.00 |  | 
18 | Cc1c(C(=O)Nc2ccc(F)c(Cl)c2)c(C)n(C)c1C(=O)C(=O)NC1(C)CCOCC1 [Example 36, N-(3-chloro-4-fluorophenyl)-1,2,4-trimethyl-5-(2-((4-methyltetrahydro-2H-pyran-4-yl)amino)-2-oxoacetyl)-1H-pyrrole-3-carboxamide] | > 8.00 |  | 
19 | Cc1c(C(=O)Nc2ccc(F)c(Cl)c2)c(C)n(C)c1C(=O)C(=O)N[C@@H](C)C(F)(F)F [Example 37, (S)—N-(3-chloro-4-fluorophenyl)-1,2,4-trimethyl-5-(2-oxo-2-((1,1,1-trifluoroprop-2-yl)amino)acetyl)-1H-pyrrole-3-carboxamide] | > 8.00 |  | 
20 | Cc1c(C(=O)Nc2ccc(F)c(F)c2)c(C)n(C)c1C(=O)C(=O)N[C@@H](C)C(F)(F)F [Example 38, (S)—N-(3,4-difluorophenyl)-1,2,4-trimethyl-5-(2-oxo-2-((1,1,1-trifluoroprop-2-yl)amino)acetyl)-1H-pyrrole-3-carboxamide] | > 8.00 | > 8.00 | 
21 | Cc1c(C(=O)Nc2ccc(F)cc2)c(C)n(C)c1C(=O)C(=O)N[C@@H](C)C(F)(F)F [Example 39] | > 8.00 | > 8.00 | CC50 at 6 days [3]: > 100000 nM
22 | Cc1c(C(=O)Nc2ccc(F)c(C#N)c2)c(C)n(C)c1C(=O)C(=O)NC1(C)CC(O)C1 (stereo not drawn) [Example 46, N-(3-cyano-4-fluorophenyl)-5-(2-((3-hydroxy-1-methylcyclobutyl)amino)-2-oxoacetyl)-1,2,4-trimethyl-1H-pyrrole-3-carboxamide] | 7.30 to 8.00 | > 8.00 | 
23 | Cc1c(C(=O)Nc2cc(F)c(F)c(F)c2)c(C)n(C)c1C(=O)C(=O)NC1(C)COC1 [Example 47, 1,2,4-trimethyl-5-(2-((3-methyloxetan-3-yl)amino)-2-oxoacetyl)-N-(3,4,5-trifluorophenyl)-1H-pyrrole-3-carboxamide] | > 8.00 | > 8.00 | 
24 | Cn1cc(C(=O)Nc2ccc(F)c(C#N)c2)cc1C(=O)C(=O)NC1(C(F)(F)F)COC1 [Example 50, N-(3-cyano-4-fluorophenyl)-1-methyl-5-(2-oxo-2-((3-(trifluoromethyl)oxetan-3-yl)amino)acetyl)-1H-pyrrole-3-carboxamide] | 7.00 to 7.30 |  | 
25 | Cc1c(C(=O)Nc2ccc(F)c(C#N)c2)c(F)c(C(=O)C(=O)N[C@@H](C)C(F)(F)F)n1C [Example 54, (S)—N-(3-cyano-4-fluorophenyl)-4-fluoro-1,2-dimethyl-5-(2-oxo-2-((1,1,1-trifluoroprop-2-yl)amino)acetyl)-1H-pyrrole-3-carboxamide] |  |  | pEC50 ([2]; HepG2.2.15, 144 h): > 8.00; pEC50 (HBV DNA in HepAD38 cells; HePAD38, 144 h): 7.30 to 8.00
26 | Cc1c(C(=O)Nc2ccc(F)c(C#N)c2)c(Cl)n(C)c1C(=O)C(=O)NC1(C)CC(O)C1 (stereo not drawn) [Example 55, 2-chloro-N-(3-cyano-4-fluorophenyl)-5-(2-((3-hydroxy-1-methylcyclobutyl)amino)-2-oxoacetyl)-1,4-dimethyl-1H-pyrrole-3-carboxamide] |  |  | pEC50 ([2]; HepG2.2.15, 144 h): 7.30 to 8.00; pEC50 (HBV DNA in HepAD38 cells; HePAD38, 144 h): 7.30 to 8.00
27 | [2H]C([2H])([2H])n1c(C)c(C(=O)Nc2ccc(F)c(C#N)c2)c(C)c1C(=O)C(=O)N[C@@H](C)C(F)(F)F [Example 60, (S)—N-(3-cyano-4-fluorophenyl)-2,4-dimethyl-1-(methyl-d3)-5-(2-oxo-2-((1,1,1-trifluoroprop-2-yl)amino)acetyl)-1H-pyrrole-3-carboxamide] | > 8.00 |  | 
